Experimental data as given in patent US6083692A, “Method of detecting the presence and measuring the quantity of biological polymers” (American Home Products Corporation, priority 1996, dated 2000).

Test system: ATP-dependent exonuclease
Test: Coupled spectrophotometric assay: ADP formation coupled to NADH oxidation (PK/LDH), read at 340 nm
Assay type: biochemical
Details: for Product inhibition: observed only upon >50% conversion of the substrates ATP and DNA; for Relative rate of ATP hydrolysis: alone
Method: Standard curves were routinely generated by using 0, 2, 6, 10, 14 and 18 μL of 1 ng/μL substrate DNA. Eighty μl of the reaction mix was incubated with up to 20 μl of DNA and dH2 O (total volume of 100 μl) at 25° C. The reactions were quenched with 15 μl of 200 mM EDTA, pH 8.0/NaOH, following a 30 or 40 min incubation. The reactions were read at 340 nm.
The 10× assay buffer contained tris-acetate (pH 7.8/acetate at 25° C.); 330 mM, potassium acetate; 660 mM, magnesium acetate; 100 mM, dithiothreitol; 5 mM, Triton X-100, 0.1%. The reaction mix was prepared as follows, 10× buffer; 0.250 ml, NADH; 0.250 ml (0.64 μmoles), PEP; 25.0 μl (2.4 μmoles), ATP; 75.0 μl (2.5 μmoles), H2 O; 1.305 ml, PK/LDH enzyme mix; 75.0 μl, ATP dependent DNAase; 20.0 μl (200 units).
An enzyme kinetics program ENZFITTER (Elsevier Biosoft) was used to generate a plot (A340 versus ng DNA) of the standard. The slope was calculated following a regression analysis. A similar plot of the sample (A340 versus μL DNA) was also prepared. The slope determined from the regression analysis was used to calculate the concentration of linear DNA in the sample.
A reliable method for quantification requires that the concentration of products formed in the reaction is linear with time, concentrations of enzyme and of substrate. In the present assay, ATP hydrolysis was linear with time. The experiments that generated the data shown in FIG. 2 are a coupled spectrophotometric assay in which the linear DNA content was varied from 2 to 20 ng. Twenty μL aliquots were removed at various times (10, 20, 30 & 60 min), and quenched by mixing with 4 μl of 200 mM EDTA as described in Materials and Methods. The samples were further diluted to 100 μl with water, to facilitate determination of optical density. ATP hydrolysis was linear with time and at least up to 40% substrate converted to products (<0.4 mM ADP and Pi). ADP formation was also linear with several enzyme concentrations. The experiments that generated the data shown in FIG. 3 are a coupled assay system in which the amount of enzyme added to the reaction was varied. The enzyme was diluted using 1× reaction buffer and left on ice prior to its addition to the reaction mixture. The reaction was quenched at 15 min, with EDTA as described in Materials and Methods. ADP formation was linear with several enzyme concentrations at least until 0.36 mM ADP and Pi was formed in the reaction. The reaction rates were slower when ~60% of the substrates (100 ng DNA and 1 mM ATP) were converted to products. […] The Vmax was 30 nmoles/min/mg enzyme. In the experiments that generated the data in FIG. 4, the reaction was carried out in a coupled assay as described in the Methods. The reactions were initiated by the addition of enzyme. Following initiation of the 500 μl reaction; 100 μl samples were withdrawn at 1, 2, 5 and 10 min and quenched with 10 μl of 200 mM EDTA. Initial velocities were derived from the reaction rate, obtained by linear regression analysis of absorbances at 340 nm recorded at various times during the reaction. […] The data reported in FIG. 5A is replot of FIG. 2 as a function of linear DNA content in the reaction mixture. In the experiments which generated these date, the 20 μl aliquots were quenched with EDTA as described above, at various times of incubation. […] The results are consistent with the potential use of this enzyme to quantify linear DNA content.

[1] = 50 ng linear DNA as substrate, +10 mM EDTA or +1 mM citrate

`Nc1ncnc2c1ncn2[C@@H]1O[C@H](COP(=O)(O)OP(=O)(O)O)[C@@H](O)[C@H]1O` [ADP, adenosine diphosphate] was tested, and the Product inhibition was “Product inhibition”.
For `O=C(O)CN(CCN(CC(=O)O)CC(=O)O)CC(=O)O` [EDTA], the “Relative rate of ATP hydrolysis” value [1] was 0.008 and the “Effect on the enzymatic reaction” value (at molar equivalent to the divalent cation used in the assay) was “quenched the enzymatic reaction”.
For `O=P(O)(O)O` [Pi, inorganic phosphate], the Product inhibition was “Product inhibition”.
With `O=C(O)CC(O)(CC(=O)O)C(=O)O` [citrate] the “Relative rate of ATP hydrolysis” value [1] was 0.686, the “Enhancement of enzymatic activity” value (citrate at 50 μM) was about 50% and the “Inhibition of ATP hydrolytic activity” value (citrate at 1 mM in the presence of 10 mM Mg++) was 30%.
For `CCO` [ethanol], the “Relative rate of ATP hydrolysis” value (5 ng linear DNA as substrate, +200 ng t-RNA, +500 ng circular DNA or +5% ethanol) was 0.86, the “Relative rate of ATP hydrolysis” value (10 ng linear DNA as substrate, +200 ng t-RNA, +500 ng circular DNA or +5% ethanol) was 1.78 and the “Relative rate of ATP hydrolysis” value (15 ng linear DNA as substrate, +200 ng t-RNA, +500 ng circular DNA or +5% ethanol) was 2.64. The “Effect on enzymatic activity” value (concentrations beyond 4% ethanol) was “severely inhibited”.
